Reference: patent publication US20070003509A1, “Skin treatment composition” (priority 2005, published 2007)
Marks after values point to notes of the source that are not given here.

Tests used:
[1] = test system: pro-collagen I in the papillary dermis; assay: Patch-test protocol, immunohistochemistry of pro-collagen I in photoaged skin in vivo; parameters: species or system human; settings: for Pro-collagen I expression in the papillary dermis, Mean (degree of immunostaining): scale 0-4, N=5
From the text: (§1) It was done by identification of Procollagen-I and Fibrillin upregulation and matrix metalloprotease-1 (MMP-1) down-regulation in Skin In Vivo. Experiments were done following topical Retinoic Acid (RA) treatment for comparative purposes and analysis of the effects of salicyloyl-phytosphingosine and phytosphingosine compared with retinoic acid with respect to the expression of dermal markers in vivo. See: Watson R E B, Craven N M, Kang S, Jones C J P, Kielty C M, Griffiths C E M. A short term screening protocol, using fibrillin-1 as a […] molecule for photoageing repair agents. J Invest Dermatol, 116: 672-678, 2001, for published methodology.
(§2) Five healthy, but clinically photoaged volunteers, were recruited (age range 54-71 years). Test substances were applied separately under standard 6 mm diameter Finn chambers to the extensor aspect of the forearm: these were vehicle base (15 μl/chamber), 0.2% PS-SLC (15 μl/chamber), 0.05% PS-SLC (15 μl/chamber), 0.2% phytosphingosine (15 μl/chamber) and 0.025% all-tans RA (Retin-A® cream, Janssen-Cilag Ltd., 15 μl/chamber). Formulations were applied to clean skin on days 1 and 4 of the assay. All-trans RA was applied to an untreated site on day 4. On day 8, Finn chambers were removed and 3 mm punch biopsies were obtained under 1% lignocaine anaesthesia from each of the test site. Biopsies were embedded in OCT compound (Tissue-Tek®, Miles, Ind., USA) and snap frozen in liquid nitrogen. Biopsy sites were sutured with 1×4/o ethilon and subjects instructed to return between 7-10 days for suture removal. Frozen sections were […] at a thickness of 10 μm (OTF cryostat, Bright Instruments Ltd.) and mounted onto gelatin-coated slides prior to histological analysis. A number of extracellular matrix (ECM) molecules known to be altered in photoaged skin were assayed by immunohistochemistry to detail the potential effects of the novel formulations. The primary marker of outcome was the distribution of fibrillin-rich microfibrils proximal to the dermal-epidermal junction (DEJ). Also assessed was the distribution of procollagen-1 within the dermis.
(§3) Matrix metalloprotease-1 (MMP-1) levels were also assessed. Whilst the fibrillin and procollagen-1 should increase for an antiaging active levels of MMP-1 should decrease for an antiaging active, i.e., increased synthesis of dermal structural proteins together with reduced levels of the proteases that degrade them. For each analysis, the marker was identified in each of three sections (i.e., 3 sections/treatment/volunteer). Sections were optimally fixed. Routinely, following hydration in tris-buffered saline (TBS; 100 mM Tris, 150 mM NaCl), sections were solublised by addition of 0.5% Triton-X100 (10 minutes). Following washing, endogenous peroxidase activity was abolished by incubation with an excess of hydrogen peroxide in methanol (30 minutes). Sections were blocked prior to application of primary antibody (overnight incubation @4° C.). Negative controls were concurrently incubated with either block alone or control serum. Following incubation, sections were stringently washed with TBS prior to application of an appropriate biotinylated secondary antibody. This was further conjugated to the enzyme horseradish peroxidase using a commercially available kit following the manufacturers instructions (ABC Elite System, Vector Laboratory, Peterborough UK). Antibody was localised using Vector SG® as chromogen (10 minute incubation)—washing in TBS quenched this reaction. Sections were counterstained using Nuclear Fast Red and finally dehydrated through serial alcohols, cleared and permanently mounted.
(§4) Sections were randomised, blinded and examined on a Nikon OPTIPHOT microscope (Tokyo, Japan). For assessment of ECM and cornified envelope components, the degree of immunostaining was assessed on a 5 point semi-quantitative scale where 0=no staining and 4=maximal staining. Four sections (including control) were examined per subject per site. […]

[2] = test system: Matrix metalloprotease-1 (MMP-1); assay: Patch-test protocol, immunohistochemistry of MMP-1 in photoaged skin in vivo; parameters: species or system human; settings: for MMP-1 expression, Mean (MMP-1 IHC): N=5
From the text: as §1, §2, §3, §4

[3] = test system: fibrillin-rich microfibrils proximal to the dermal-epidermal junction (DEJ); assay: Patch-test protocol, immunohistochemistry of fibrillin-rich microfibrils in photoaged skin in vivo; parameters: species or system human; settings: for Fibrillin expression proximal to the DEJ, Mean (degree of immunostaining): scale 0-4
From the text: as §1, §2, §3, §4

[4] = test system: cellulite (thigh); assay: Clinical trial of anticellulite activity by topical application; format: in vivo, human; settings: 0.2% formulation of Example 2, two times a day for 2 months, six female subjects
From the text: Six female subjects were selected for a clinical trial of anticellulite activity of salicyloyl-phytoshingosine by topical application.
The scale ranged from 0 to 4, being 0=No cellulite; 1=Small bumps or depressions; 2=Striations and bumps; 3=Pronounced lumpiness of the skin and striations; 4=All of the above plus hard sub-surface nodules. All tested volunteers had cellulite with grades 1 and 2. The subjects were divided in 2 groups of 3 individuals
Group 1 was instructed to apply a formulation described in Example 2 containing 0.2% salicloyl-phytosphingosine on the right thigh and the vehicle formulation without salicyloyl-phytoshingosine in the left thigh Group 2 was instructed to apply the formulations vice versa. The subjects were taught to carry out the application two times a day, at morning and at night for a period of 2 months. Afterwards the cellulite condition was evaluated by comparison of the thigh diameter, the clinical degrading and the subjective improvement.

[5] = Patch-test protocol, erythema at the site of application; format: in vivo, human; settings: occluded patch test on forearm, photoaged volunteers
Procedure: as §2, with “The primary marker of outcome was the distribution of fibrillin-rich microfibrils proximal to the dermal-epidermal junction (DEJ).” left out

[6] = 0.2% topical occluded, vs vehicle
[7] = 0.2% topical under Finn chamber, applied days 1 and 4, biopsy day 8
[8] = topical occluded application, concentration not given
[9] = 0.2% topical under Finn chamber, applied days 1 and 4, biopsy day 8, N=5 photoaged volunteers
[10] = 0.05% topical under Finn chamber, applied days 1 and 4, biopsy day 8
[11] = 0.025% (Retin-A cream), applied day 4, biopsy day 8

Row | Erythema at the site of application [5] | Structure (SMILES) | pCI content in the papillary dermis (in words) [1, 6] | Pro-collagen I expression in the papillary dermis, Mean (degree of immunostaining) [1, 7] | Effects on procollagen I in the papillary dermis (study summary, in words) [1, 8] | MMP-1 levels (in words) [2, 6] | MMP-1 expression, Mean (MMP-1 IHC) [2, 7] | Fibrillin-1 deposition proximal to the DEJ (in words) [3, 6] | Fibrillin expression proximal to the DEJ, Mean (degree of immunostaining) [3, 9] | Fibrillin-rich microfibrillar network proximal to the DEJ of photoaged skin (study summary, in words) [3, 8] | Pro-collagen I expression in the papillary dermis, Mean (degree of immunostaining) [1, 10] | MMP-1 expression, Mean (MMP-1 IHC) [2, 10] | Clinical grading (cellulite) reduction in comparison with the vehicle treated thigh [4] | Subjective improvement increase in comparison with the vehicle treated thigh [4] | Thigh diameter reduction in comparison with the vehicle treated thigh [4] | Fibrillin expression proximal to the DEJ, Mean (degree of immunostaining) ([3]; 0.05% topical under Finn chamber, applied days 1 and 4, biopsy day 8, N=5) | Pro-collagen I expression in the papillary dermis, Mean (degree of immunostaining) [1, 11] | MMP-1 expression, Mean (MMP-1 IHC) [2, 11] | Expression of MMP-1 (in words) ([2]; 0.025% all-trans RA, 4 day occluded application) | Fibrillin expression proximal to the DEJ, Mean (degree of immunostaining) ([3]; 0.025% (Retin-A cream) under Finn chamber, applied day 4, biopsy day 8, N=5)
1 |  | CCCCCCCCCCCCCC[C@@H](O)[C@@H](O)[C@@H](N)CO [PS, phytosphingosine] | significantly increased | 2.5556** | beneficial effects | no effect | 33.23 | significant induction of fibrillin expression | 2.0000** | restores |  |  |  |  |  |  |  |  |  | 
2 |  | CCCCCCCCCCCCCC[C@@H](O)[C@@H](O)[C@H](CO)NC(=O)c1ccccc1O [PS-SLC, salicyloyl-phytosphingosine] |  | 2.7790* |  |  | 22.72* |  | 2.267* |  | 2.2472 | 18.40* | 27% | 34% | 4% | 1.7778** |  |  |  | 
3 | marked erythema | CC1=C(/C=C/C(C)=C/C=C/C(C)=C/C(=O)O)C(C)(C)CCC1 [RA, retinoic acid] |  |  |  |  |  |  |  |  |  |  |  |  |  |  | 2.2667 | 36.82 | no effect | 2.8625**
